Reference: patent publication US10766869B2, “Triazoles for the treatment of demyelinating dieases” (Vertex Pharmaceuticals Incorporated, priority 2015, dated 2020)

Tested on: primary rat mixed cortical cells
Assay: In vitro myelination assay (MBP positive myelin strands, fold myelin pixels above background)
Format: cell-based
Settings: Rattus norvegicus, relative to baseline of no added compound; for fold induction at 1 µM: 1.0 μM compound, read-out: Fold myelin pixels above background, 1.0 μM; for fold induction at 10 µM: 10.0 μM compound, read-out: Fold myelin pixels above background, 10.0 μM
How it was run: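 Fourteen-day treatment of primary P1 rat mixed cortical cultures, re-dosed at days 6 and 10, at 1.0 μM and 10.0 μM. MBP immunofluorescence was imaged at 10× and myelin strands quantified by software, normalised to untreated wells as fold above background.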

## Cc1cc(Nc2ncn(-c3cc(F)c(C#N)cc3F)n2)cc(N2CCN(C3COC3)CC2)c1 [Compound 66, 2,5-difluoro-4-[3-[3-methyl-5-[4-(oxetan-3-yl)piperazin-1-yl]anilino]-1,2,4-triazol-1-yl]benzonitrile]
  fold induction at 1 µM: 10 to 100
  fold induction at 10 µM: 10 to 100

## Cc1cc(Nc2ncn(-c3cc(F)cc(F)c3)n2)cc(N2CCN(C3COC3)CC2=O)c1 [Compound 67, 1-[3-[[1-(3,5-difluorophenyl)-1,2,4-triazol-3-yl]amino]-5-methyl-phenyl]-4-(oxetan-3-yl)piperazin-2-one]
  fold induction at 1 µM: 1 to 10
  fold induction at 10 µM: 10 to 100

## Cc1cc(Nc2ncn(-c3cnccn3)n2)cc(N2CCN(C)CC2)c1 [Compound 68, N-[3-methyl-5-(4-methylpiperazin-1-yl)phenyl]-1-pyrazin-2-yl-1,2,4-triazol-3-amine]
  fold induction at 1 µM: 100 to 1000
  fold induction at 10 µM: 1000 to 10000

## CCc1cc(Nc2ncn(-c3ccc(F)c(F)c3)n2)cc(N2CCN(C3COC3)CC2)c1 [Compound 69, 1-(3,4-difluorophenyl)-N-[3-ethyl-5-[4-(oxetan-3-yl)piperazin-1-yl]phenyl]-1,2,4-triazol-3-amine]
  fold induction at 1 µM: 1000 to 10000
  fold induction at 10 µM: 10 to 100

## Cc1ccc(-n2cnc(Nc3cc(C)cc(N4CCN(C5COC5)CC4)c3)n2)cc1 [Compound 70, N-[3-methyl-5-[4-(oxetan-3-yl)piperazin-1-yl]phenyl]-1-(p-tolyl)-1,2,4-triazol-3-amine]
  fold induction at 1 µM: ≤ 1
  fold induction at 10 µM: 10 to 100

## Cc1cc(Nc2ncn(-c3ccccc3)n2)cc(C2CCN(C3COC3)CC2)c1 [Compound 71, N-[3-methyl-5-[1-(oxetan-3-yl)-4-piperidyl]phenyl]-1-phenyl-1,2,4-triazol-3-amine]
  fold induction at 1 µM: 1000 to 10000
  fold induction at 10 µM: ≤ 1

## CCOC(=O)CN1CCN(c2cc(C)cc(Nc3ncn(-c4cc(F)cc(F)c4)n3)c2)CC1 [Compound 72, ethyl 2-[4-[3-[[1-(3,5-difluorophenyl)-1,2,4-triazol-3-yl]amino]-5-methyl-phenyl]piperazin-1-yl]acetate]
  fold induction at 1 µM: 10 to 100
  fold induction at 10 µM: 1 to 10

## Cc1cc(F)cc(-n2cnc(Nc3cc(C4CC4)cc(N4CCN(C5COC5)CC4)c3)n2)c1 [Compound 73, N-[3-cyclopropyl-5-[4-(oxetan-3-yl)piperazin-1-yl]phenyl]-1-(3-fluoro-5-methyl-phenyl)-1,2,4-triazol-3-amine]
  fold induction at 1 µM: 100 to 1000
  fold induction at 10 µM: ≤ 1

## Cc1cc(Nc2ncn(-c3cnccn3)n2)cc(C2CCCN(C3COC3)C2)c1 (stereo not drawn) [Compound 74, N-[3-methyl-5-[1-(oxetan-3-yl)-3-piperidyl]phenyl]-1-pyrazin-2-yl-1,2,4-triazol-3-amine]
  fold induction at 1 µM: 100 to 1000
  fold induction at 10 µM: 100 to 1000

## Cc1cc(Nc2ncn(-c3cnccn3)n2)cc(N2CCN(C3CC(F)(F)C3)CC2)c1 [Compound 75, N-[3-[4-(3,3-difluorocyclobutyl)piperazin-1-yl]-5-methyl-phenyl]-1-pyrazin-2-yl-1,2,4-triazol-3-amine]
  fold induction at 1 µM: ≤ 1
  fold induction at 10 µM: 100 to 1000

## Cc1cc(Nc2ncn(-c3ccccc3)n2)cc(N2CCN(C)C(=O)C2)c1 [Compound 76, 1-methyl-4-[3-methyl-5-[(1-phenyl-1,2,4-triazol-3-yl)amino]phenyl]piperazin-2-one]
  fold induction at 1 µM: 100 to 1000
  fold induction at 10 µM: 100 to 1000

## Cc1cc(Nc2ncn(-c3cc(F)cc(F)c3)n2)cc(N2CCNCC2)c1 [Compound 77, 1-(3,5-difluorophenyl)-N-(3-methyl-5-piperazin-1-yl-phenyl)-1,2,4-triazol-3-amine]
  fold induction at 1 µM: 100 to 1000
  fold induction at 10 µM: ≤ 1

## Cc1cc(Nc2ncn(-c3cc(F)cc(F)c3)n2)cc(N2C[C@@H]3C[C@H]2CN3C2CC2)c1 [Compound 78, N-[3-[(1S,4S)-2-cyclopropyl-2,5-diazabicyclo[2.2.1]heptan-5-yl]-5-methyl-phenyl]-1-(3,5-difluorophenyl)-1,2,4-triazol-3-amine]
  fold induction at 1 µM: 100 to 1000
  fold induction at 10 µM: ≤ 1

## Cc1cc(Nc2ncn(-c3cc(F)cc(F)c3)n2)cc(N2CCN(C(CO)CO)CC2)c1 [Compound 79, 2-[4-[3-[[1-(3,5-difluorophenyl)-1,2,4-triazol-3-yl]amino]-5-methyl-phenyl]piperazin-1-yl]propane-1,3-diol]
  fold induction at 1 µM: 10 to 100
  fold induction at 10 µM: ≤ 1

## Fc1cc(Nc2ncn(-c3ccccc3)n2)cc(N2CCOCC2)c1 [Compound 80, N-(3-fluoro-5-morpholino-phenyl)-1-phenyl-1,2,4-triazol-3-amine]
  fold induction at 1 µM: 10 to 100
  fold induction at 10 µM: 1000 to 10000

## Cc1cc(Nc2ncn(-c3ccc(C#N)cc3)n2)cc(N2CCN(C)CC2)c1 [Compound 81, 4-[3-[3-methyl-5-(4-methylpiperazin-1-yl)anilino]-1,2,4-triazol-1-yl]benzonitrile]
  fold induction at 1 µM: 1 to 10
  fold induction at 10 µM: ≤ 1

## Fc1cc(F)cc(-n2cnc(Nc3cc(C(F)F)cc(N4CCN(C5COC5)CC4)c3)n2)c1 [Compound 82, N-[3-(difluoromethyl)-5-[4-(oxetan-3-yl)piperazin-1-yl]phenyl]-1-(3,5-difluorophenyl)-1,2,4-triazol-3-amine]
  fold induction at 1 µM: 1000 to 10000
  fold induction at 10 µM: 100 to 1000

## Fc1cc(Nc2ncn(-c3ccccc3F)n2)cc(N2CCCC2)c1 [Compound 83, 1-(2-fluorophenyl)-N-(3-fluoro-5-pyrrolidin-1-yl-phenyl)-1,2,4-triazol-3-amine]
  fold induction at 1 µM: ≤ 1
  fold induction at 10 µM: 10 to 100

## Cc1cc(Nc2ncn(-c3ccncc3)n2)cc(N2CCOCC2)c1 [Compound 84, N-(3-methyl-5-morpholino-phenyl)-1-(4-pyridyl)-1,2,4-triazol-3-amine]
  fold induction at 1 µM: 1000 to 10000
  fold induction at 10 µM: 10 to 100

## Fc1cc(-n2cnc(Nc3cc(C(F)F)cc(N4CCOCC4)c3)n2)ccn1 [Compound 85, N-[3-(difluoromethyl)-5-morpholino-phenyl]-1-(2-fluoro-4-pyridyl)-1,2,4-triazol-3-amine]
  fold induction at 1 µM: 100 to 1000
  fold induction at 10 µM: 100 to 1000

## COc1cccc(-n2cnc(Nc3cc(C)cc(N4CCN(C5COC5)CC4)c3)n2)c1 [Compound 86, 1-(3-methoxyphenyl)-N-[3-methyl-5-[4-(oxetan-3-yl)piperazin-1-yl]phenyl]-1,2,4-triazol-3-amine]
  fold induction at 1 µM: 100 to 1000
  fold induction at 10 µM: 100 to 1000

## Cc1cc(Nc2ncn(-c3ccccc3)n2)cc(N2CCN(C3CCCC3)CC2)c1 [Compound 87, N-[3-(4-cyclopentylpiperazin-1-yl)-5-methyl-phenyl]-1-phenyl-1,2,4-triazol-3-amine]
  fold induction at 1 µM: 100 to 1000
  fold induction at 10 µM: 100 to 1000

## Fc1ccc(-n2cnc(Nc3cc(C4CC4)nc(N4CCOCC4)c3)n2)cc1F [Compound 88, 2-cyclopropyl-N-[1-(3,4-difluorophenyl)-1,2,4-triazol-3-yl]-6-morpholino-pyridin-4-amine]
  fold induction at 1 µM: 1000 to 10000
  fold induction at 10 µM: 1000 to 10000

## Cc1cc(Nc2ncn(-c3ccccc3)n2)cc(N2CCS(=O)(=O)CC2)c1 [Compound 89, N-[3-(1,1-dioxo-1,4-thiazinan-4-yl)-5-methyl-phenyl]-1-phenyl-1,2,4-triazol-3-amine]
  fold induction at 1 µM: 1000 to 10000
  fold induction at 10 µM: 100 to 1000
